This passage reports IC50 results from patent US5532400A, “2,6-di-alkyl-4-silyl-phenols as antiatheroscelerotic agents” (Merrell Pharmaceuticals Inc., priority 1994, dated 1996).

This assay deals with human LDL. Kind of assay: Inhibition of LDL lipid peroxidation (cupric sulfate-induced, thiobarbituric acid assay). In kind it is biochemical. The note with it: 250 μg human LDL, test compound 30 min at 42° C., cupric sulfate 12.5 μM, 37° C., 2.5 hours, read-out: ID50 (concentration of test compound required to inhibit 50% of LDL lipid peroxidation). The procedure:
The degree of inhibition of LDL lipid peroxidation was determined by the method of Yagi et al. [Vitamins 39, 105 (1968)].
A 0.5 mL solution containing 250 micrograms (μg) of human LDL was incubated with the test compound, in amounts varying from 0 to 30 μg, for 30 minutes at 42° C. To this mixture was added 1 mL of a cupric sulfate solution (final concentration 12.5 μM) and the mixture was incubated at 37° C. for 2.5 hours. The amount of peroxidation of LDL lipid was determined by the thiobarbituric acid assay. The concentration of test compound required to inhibit 50% of LDL lipid peroxidation (ID50) was determined.

Regarding `CC(C)(C)c1cc(SC[Si](C)(C)C)cc(C(C)(C)C)c1O` [Compound A], the IC50 is 2800 nM.

As for `CC(C)(C)c1cc(SC[Si](C)(C)c2ccccc2)cc(C(C)(C)C)c1O` [Compound B], the IC50 was 3000 nM.
